This note sets out measurements from ChEMBL document CHEMBL1938284, “Synthesis and biological activity of novel organoselenium derivatives targeting multiple kinases and capable of inhibiting cancer progression to metastases” (Eur J Med Chem, 2012).

The inhibition is the drop in the measured response relative to a control, in per cent.

Experiment [1] addresses RAC-alpha serine/threonine-protein kinase (Homo sapiens, UniProt P31749). In words: Inhibition of AKT-1 at 1 uM.
The target of experiment [2] is Protein kinase C alpha type (Homo sapiens, UniProt P17252). In words: Inhibition of PKCalpha at 1 uM.
Experiment [3] addresses T1, Aurora kinase A (Homo sapiens) (UniProt O14965).
T1 sequence (whole entry): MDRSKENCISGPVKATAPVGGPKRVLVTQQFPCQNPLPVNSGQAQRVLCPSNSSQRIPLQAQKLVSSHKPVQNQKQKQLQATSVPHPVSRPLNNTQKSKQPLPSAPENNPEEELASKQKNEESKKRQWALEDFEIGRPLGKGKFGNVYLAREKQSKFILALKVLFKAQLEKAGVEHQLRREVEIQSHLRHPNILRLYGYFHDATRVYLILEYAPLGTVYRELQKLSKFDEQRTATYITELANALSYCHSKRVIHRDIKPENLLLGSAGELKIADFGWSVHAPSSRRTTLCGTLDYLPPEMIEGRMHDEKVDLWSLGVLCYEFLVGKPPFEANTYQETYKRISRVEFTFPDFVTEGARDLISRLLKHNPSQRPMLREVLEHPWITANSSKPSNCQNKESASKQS
In words: Inhibition of Aurora A at 1 uM.

Experiment [4] addresses Receptor-type tyrosine-protein kinase FLT3 (Homo sapiens) (UniProt P36888). In words: Inhibition of FLT3 at 1 uM.
The target in experiment [5] is Receptor tyrosine-protein kinase erbB-2 (Homo sapiens) (UniProt P04626). In words: Inhibition of HER2 at 1 uM.
Chain of Receptor tyrosine-protein kinase erbB-2 (Homo sapiens) (P04626 whole entry): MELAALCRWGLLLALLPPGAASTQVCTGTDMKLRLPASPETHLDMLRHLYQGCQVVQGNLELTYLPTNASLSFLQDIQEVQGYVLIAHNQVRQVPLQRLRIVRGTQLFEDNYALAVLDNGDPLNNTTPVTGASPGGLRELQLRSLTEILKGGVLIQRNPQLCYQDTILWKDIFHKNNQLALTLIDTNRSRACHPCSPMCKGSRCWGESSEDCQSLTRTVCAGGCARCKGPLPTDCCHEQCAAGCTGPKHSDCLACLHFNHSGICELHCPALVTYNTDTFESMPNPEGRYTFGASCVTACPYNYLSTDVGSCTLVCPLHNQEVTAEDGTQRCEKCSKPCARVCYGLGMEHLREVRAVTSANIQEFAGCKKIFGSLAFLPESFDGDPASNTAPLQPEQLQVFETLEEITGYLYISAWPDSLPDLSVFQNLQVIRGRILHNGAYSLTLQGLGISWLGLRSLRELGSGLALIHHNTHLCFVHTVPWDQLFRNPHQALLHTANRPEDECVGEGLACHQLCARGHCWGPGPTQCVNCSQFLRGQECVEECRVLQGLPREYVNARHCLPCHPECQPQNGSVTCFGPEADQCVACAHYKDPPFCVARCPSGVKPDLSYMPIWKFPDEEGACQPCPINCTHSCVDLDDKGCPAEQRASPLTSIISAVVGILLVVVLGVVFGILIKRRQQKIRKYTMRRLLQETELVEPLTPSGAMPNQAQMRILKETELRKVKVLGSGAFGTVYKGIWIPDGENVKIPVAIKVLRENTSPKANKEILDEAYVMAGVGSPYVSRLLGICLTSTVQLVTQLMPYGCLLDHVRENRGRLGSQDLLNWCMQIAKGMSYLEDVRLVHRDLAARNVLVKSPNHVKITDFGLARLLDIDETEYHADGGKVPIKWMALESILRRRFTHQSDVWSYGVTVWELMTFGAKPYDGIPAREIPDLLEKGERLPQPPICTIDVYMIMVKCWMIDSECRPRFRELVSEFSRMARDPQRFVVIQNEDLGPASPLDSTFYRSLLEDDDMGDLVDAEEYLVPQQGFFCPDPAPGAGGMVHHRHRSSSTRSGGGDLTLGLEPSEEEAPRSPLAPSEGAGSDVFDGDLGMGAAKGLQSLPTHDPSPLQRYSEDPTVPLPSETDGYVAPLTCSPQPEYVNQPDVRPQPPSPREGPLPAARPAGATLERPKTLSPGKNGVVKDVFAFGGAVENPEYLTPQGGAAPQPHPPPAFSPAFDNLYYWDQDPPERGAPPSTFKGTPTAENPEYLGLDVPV
Experiment [6] concerns the target T2, Inhibitor of nuclear factor kappa-B kinase subunit epsilon (Homo sapiens) (UniProt Q14164).
T2 sequence (whole entry): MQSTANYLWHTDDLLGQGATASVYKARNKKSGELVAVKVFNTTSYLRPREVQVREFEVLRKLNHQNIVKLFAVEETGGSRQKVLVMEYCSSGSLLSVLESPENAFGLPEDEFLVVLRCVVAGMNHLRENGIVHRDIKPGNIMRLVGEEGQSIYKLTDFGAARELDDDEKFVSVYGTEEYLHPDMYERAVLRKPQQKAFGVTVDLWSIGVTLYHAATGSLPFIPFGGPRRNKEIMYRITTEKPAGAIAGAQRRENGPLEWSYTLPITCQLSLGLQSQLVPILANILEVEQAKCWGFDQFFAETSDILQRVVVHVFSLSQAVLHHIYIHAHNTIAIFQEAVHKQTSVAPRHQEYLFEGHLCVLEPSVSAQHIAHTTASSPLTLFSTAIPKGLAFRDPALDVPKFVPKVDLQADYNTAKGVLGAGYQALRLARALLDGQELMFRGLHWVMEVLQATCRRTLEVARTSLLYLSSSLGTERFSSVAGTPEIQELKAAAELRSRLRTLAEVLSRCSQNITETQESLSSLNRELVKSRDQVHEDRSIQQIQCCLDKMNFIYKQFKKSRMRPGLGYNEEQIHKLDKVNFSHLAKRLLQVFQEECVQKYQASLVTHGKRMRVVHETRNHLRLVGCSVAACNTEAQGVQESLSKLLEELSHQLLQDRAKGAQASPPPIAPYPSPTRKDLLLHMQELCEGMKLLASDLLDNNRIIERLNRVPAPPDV
Put plainly: Inhibition of IKKepsilon at 1 uM.

Experiment [7] has as its target Tyrosine-protein kinase Lyn (Homo sapiens) (UniProt P07948). In words: Inhibition of LYN at 1 uM.
Experiment [8] concerns the target Serine/threonine-protein kinase PAK 1 (Homo sapiens) (UniProt Q13153). In words: Inhibition of PAK1 at 1 uM.
Experiment [9] addresses T3, Serine/threonine-protein kinase PLK4 (Homo sapiens) (UniProt O00444).
T3 sequence (whole entry): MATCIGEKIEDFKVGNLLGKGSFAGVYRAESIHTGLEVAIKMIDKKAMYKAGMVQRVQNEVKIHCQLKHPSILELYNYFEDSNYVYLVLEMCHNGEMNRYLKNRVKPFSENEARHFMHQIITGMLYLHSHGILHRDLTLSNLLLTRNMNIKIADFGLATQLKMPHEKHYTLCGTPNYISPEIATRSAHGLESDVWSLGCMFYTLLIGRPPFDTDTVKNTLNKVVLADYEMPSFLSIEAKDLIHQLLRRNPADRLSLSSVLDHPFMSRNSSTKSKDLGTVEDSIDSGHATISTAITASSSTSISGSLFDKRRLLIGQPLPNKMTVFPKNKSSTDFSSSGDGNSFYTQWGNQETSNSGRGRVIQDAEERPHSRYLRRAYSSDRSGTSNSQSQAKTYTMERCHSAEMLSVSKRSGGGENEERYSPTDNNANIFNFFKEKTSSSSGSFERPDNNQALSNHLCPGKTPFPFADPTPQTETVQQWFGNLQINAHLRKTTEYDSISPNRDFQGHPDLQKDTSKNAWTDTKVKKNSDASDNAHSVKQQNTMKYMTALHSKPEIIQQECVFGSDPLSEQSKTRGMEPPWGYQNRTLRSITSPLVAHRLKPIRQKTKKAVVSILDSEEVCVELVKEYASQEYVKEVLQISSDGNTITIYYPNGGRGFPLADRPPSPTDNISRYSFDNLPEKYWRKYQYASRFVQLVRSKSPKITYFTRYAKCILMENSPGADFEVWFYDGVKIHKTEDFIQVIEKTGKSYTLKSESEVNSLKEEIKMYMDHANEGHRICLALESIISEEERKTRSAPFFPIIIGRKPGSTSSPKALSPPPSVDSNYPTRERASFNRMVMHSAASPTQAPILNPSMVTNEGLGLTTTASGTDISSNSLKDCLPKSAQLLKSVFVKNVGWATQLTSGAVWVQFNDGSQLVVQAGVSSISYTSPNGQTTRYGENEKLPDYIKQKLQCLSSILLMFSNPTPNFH
Put plainly: Inhibition of PLK4 at 1 uM.

In experiment [10] the target is T4, Serine/threonine-protein kinase Sgk3 (Homo sapiens) (UniProt Q96BR1).
T4 sequence (whole entry): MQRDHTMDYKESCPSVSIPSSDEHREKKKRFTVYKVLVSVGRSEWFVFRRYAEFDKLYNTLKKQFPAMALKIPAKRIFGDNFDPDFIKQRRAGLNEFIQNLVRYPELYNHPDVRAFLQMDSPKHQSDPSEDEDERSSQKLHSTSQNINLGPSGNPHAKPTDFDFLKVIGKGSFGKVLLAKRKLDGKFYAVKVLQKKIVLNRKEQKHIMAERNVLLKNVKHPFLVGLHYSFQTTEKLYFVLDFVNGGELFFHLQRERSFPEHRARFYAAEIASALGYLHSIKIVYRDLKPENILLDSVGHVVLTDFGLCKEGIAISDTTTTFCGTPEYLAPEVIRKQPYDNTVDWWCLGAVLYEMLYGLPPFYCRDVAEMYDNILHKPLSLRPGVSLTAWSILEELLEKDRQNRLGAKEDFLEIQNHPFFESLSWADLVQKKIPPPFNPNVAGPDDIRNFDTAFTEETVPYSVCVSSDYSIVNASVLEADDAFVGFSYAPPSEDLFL
In words: Inhibition of SGK3 at 1 uM.

In experiment [11] the target is Vascular endothelial growth factor receptor 2 (Homo sapiens) (UniProt P35968). In words: Inhibition of VEGFR2 at 1 uM.
Chain of Vascular endothelial growth factor receptor 2 (Homo sapiens) (P35968 whole entry): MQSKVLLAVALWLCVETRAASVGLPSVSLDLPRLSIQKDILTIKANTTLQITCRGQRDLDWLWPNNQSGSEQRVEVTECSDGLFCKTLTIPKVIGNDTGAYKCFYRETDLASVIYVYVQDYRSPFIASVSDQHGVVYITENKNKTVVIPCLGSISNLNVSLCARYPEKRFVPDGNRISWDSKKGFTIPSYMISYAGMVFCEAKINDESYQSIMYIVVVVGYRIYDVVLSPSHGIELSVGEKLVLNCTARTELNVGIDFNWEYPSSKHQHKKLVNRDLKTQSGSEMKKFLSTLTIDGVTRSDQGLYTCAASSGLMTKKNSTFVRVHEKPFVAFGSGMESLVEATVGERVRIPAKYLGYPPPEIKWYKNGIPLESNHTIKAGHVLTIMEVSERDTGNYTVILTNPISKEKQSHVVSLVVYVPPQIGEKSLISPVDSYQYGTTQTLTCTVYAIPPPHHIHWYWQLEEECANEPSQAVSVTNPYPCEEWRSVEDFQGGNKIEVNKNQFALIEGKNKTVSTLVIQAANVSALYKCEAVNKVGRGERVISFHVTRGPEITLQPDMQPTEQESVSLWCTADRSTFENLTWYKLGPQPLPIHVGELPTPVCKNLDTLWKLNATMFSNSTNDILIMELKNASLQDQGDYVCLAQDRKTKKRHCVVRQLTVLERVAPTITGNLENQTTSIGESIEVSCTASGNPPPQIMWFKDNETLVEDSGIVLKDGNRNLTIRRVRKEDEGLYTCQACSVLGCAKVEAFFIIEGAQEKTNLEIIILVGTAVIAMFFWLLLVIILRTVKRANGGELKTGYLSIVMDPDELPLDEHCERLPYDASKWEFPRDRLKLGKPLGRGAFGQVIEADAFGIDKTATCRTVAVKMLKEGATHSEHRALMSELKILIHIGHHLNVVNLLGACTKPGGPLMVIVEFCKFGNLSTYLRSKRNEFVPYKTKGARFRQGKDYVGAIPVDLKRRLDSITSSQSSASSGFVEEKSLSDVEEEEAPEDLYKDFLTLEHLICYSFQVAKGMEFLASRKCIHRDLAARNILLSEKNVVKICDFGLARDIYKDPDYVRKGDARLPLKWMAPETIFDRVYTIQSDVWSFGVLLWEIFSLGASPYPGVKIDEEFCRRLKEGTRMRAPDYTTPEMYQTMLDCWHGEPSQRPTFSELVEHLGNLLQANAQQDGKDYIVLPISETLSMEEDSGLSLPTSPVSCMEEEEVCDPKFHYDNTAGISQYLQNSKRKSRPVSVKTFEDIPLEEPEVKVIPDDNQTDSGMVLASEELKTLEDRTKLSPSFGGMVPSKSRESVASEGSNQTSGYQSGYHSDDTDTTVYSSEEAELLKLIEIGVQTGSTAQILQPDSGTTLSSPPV

Chain of Receptor-type tyrosine-protein kinase FLT3 (Homo sapiens) (P36888 whole entry): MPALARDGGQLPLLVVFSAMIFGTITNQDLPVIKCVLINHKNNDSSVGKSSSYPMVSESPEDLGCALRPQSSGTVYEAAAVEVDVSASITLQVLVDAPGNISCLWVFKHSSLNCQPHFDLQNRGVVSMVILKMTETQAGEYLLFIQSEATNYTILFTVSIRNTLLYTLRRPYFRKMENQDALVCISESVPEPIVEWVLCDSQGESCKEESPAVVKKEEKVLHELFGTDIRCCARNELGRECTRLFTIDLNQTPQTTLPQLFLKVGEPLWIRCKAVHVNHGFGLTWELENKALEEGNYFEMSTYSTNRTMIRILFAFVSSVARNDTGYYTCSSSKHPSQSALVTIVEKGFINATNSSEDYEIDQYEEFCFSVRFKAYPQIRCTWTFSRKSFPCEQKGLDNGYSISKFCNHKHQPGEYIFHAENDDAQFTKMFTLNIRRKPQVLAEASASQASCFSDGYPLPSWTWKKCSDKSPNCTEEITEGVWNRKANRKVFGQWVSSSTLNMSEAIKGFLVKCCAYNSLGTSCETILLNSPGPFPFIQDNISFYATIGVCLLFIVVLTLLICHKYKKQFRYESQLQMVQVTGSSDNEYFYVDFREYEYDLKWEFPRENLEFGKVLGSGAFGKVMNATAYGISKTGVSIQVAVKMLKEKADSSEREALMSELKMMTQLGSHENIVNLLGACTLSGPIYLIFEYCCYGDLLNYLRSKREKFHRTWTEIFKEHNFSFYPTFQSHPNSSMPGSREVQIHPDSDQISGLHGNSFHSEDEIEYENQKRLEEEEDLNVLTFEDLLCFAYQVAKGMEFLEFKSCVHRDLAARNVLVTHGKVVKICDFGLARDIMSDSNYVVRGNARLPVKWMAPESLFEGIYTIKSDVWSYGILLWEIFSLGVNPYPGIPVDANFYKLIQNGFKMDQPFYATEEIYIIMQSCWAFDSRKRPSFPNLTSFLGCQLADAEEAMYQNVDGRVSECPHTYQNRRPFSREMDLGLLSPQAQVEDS
Chain of Serine/threonine-protein kinase PAK 1 (Homo sapiens) (Q13153 whole entry): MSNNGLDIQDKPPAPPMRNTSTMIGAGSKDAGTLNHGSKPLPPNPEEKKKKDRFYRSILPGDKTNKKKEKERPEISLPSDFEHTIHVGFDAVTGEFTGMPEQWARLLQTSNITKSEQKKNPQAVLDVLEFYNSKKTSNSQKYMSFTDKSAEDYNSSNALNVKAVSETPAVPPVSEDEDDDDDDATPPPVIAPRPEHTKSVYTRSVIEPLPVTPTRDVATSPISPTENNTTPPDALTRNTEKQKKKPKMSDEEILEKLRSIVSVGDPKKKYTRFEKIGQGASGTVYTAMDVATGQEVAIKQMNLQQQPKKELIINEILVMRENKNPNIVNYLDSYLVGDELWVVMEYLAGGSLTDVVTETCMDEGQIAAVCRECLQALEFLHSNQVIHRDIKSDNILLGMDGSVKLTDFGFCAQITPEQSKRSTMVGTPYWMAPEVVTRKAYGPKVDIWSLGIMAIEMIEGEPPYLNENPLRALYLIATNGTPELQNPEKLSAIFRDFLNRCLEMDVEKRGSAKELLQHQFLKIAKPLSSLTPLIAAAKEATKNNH
Chain of RAC-alpha serine/threonine-protein kinase (P31749 whole entry): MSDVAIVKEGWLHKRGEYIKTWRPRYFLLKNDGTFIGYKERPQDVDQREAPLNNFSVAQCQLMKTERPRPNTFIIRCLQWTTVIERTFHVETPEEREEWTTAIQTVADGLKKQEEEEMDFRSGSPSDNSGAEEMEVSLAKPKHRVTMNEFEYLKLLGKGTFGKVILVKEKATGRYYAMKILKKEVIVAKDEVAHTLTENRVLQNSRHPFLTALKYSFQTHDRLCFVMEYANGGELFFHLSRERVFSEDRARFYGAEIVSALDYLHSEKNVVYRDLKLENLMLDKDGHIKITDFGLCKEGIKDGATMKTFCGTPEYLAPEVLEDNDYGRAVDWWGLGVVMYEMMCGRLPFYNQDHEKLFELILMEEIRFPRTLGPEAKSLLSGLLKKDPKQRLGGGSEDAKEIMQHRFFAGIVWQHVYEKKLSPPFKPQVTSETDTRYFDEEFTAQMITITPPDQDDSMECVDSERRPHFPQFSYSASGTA

`CC(=O)OC[C@H]1O[C@@H](O[C@H]2[C@H](OC(C)=O)[C@@H](OC(C)=O)[C@H](n3[se]c4ccccc4c3=O)O[C@@H]2COC(C)=O)[C@H](OC(C)=O)[C@@H](OC(C)=O)[C@H]1OC(C)=O`: the inhibition amounted to 63% in experiment [1]; 95% in experiment [2]; 0% in experiment [3]; 0% in experiment [4]; 0% in experiment [5]; 0% in [6]. The inhibition in [7], in experiment [8], in experiment [9], in experiment [10] and in [11] was 0% each time.

In the case of `CC(=O)OC[C@H]1O[C@@H](NC(=O)CCCn2[se]c3ccccc3c2=O)[C@H](OC(C)=O)[C@@H](OC(C)=O)[C@@H]1OC(C)=O`, the inhibition in experiment [1] came out at 67%; in experiment [2], 77%; in experiment [3], 0%; in [4] it was 0%; in experiment [5] it was 0%; in experiment [6], 0%. Besides, the inhibition in [7], in experiment [8], in [9], in experiment [10] and in experiment [11] was 0% each time.

For the compound `O=c1c2ccccc2[se]n1-c1ccccc1` [EBSELEN], the inhibition in experiment [1] turned out to be 22%; in experiment [2], 25%; in experiment [3], 0%; in experiment [4] it was 0%; in [5] it was 0%; in experiment [6], 0%. Moreover, the inhibition in [7], in [8], in experiment [9], in experiment [10] and in experiment [11] was 0% in each case.

Consider `O=C(CCCn1[se]c2ccccc2c1=O)N[C@@H]1O[C@H](CO)[C@@H](O)[C@H](O)[C@H]1O`, for which the inhibition turned out to be 60% in experiment [1]; 74% in experiment [2]; 0% in experiment [3]; 0% in experiment [4]; 0% in experiment [5]; 0% in experiment [6]. Besides, the inhibition in experiment [7], in [8], in [9], in experiment [10] and in [11] was 0% each time.
